{"source": "ChEMBL document CHEMBL5614422", "about": "“Design, synthesis and biological evaluation of N-salicyloyl tryptamine derivatives as multifunctional neuroprotectants for the treatment of ischemic stroke” (Eur J Med Chem, 2024)", "key": {"[1]": {"assay": "Aqueous solubility of the compound incubated for 72 hrs under shaking condition by HPLC analysis", "format": "physicochemical"}, "[2]": {"assay": "Half life in 12 hrs fasted male Sprague-Dawley rat at 50 mg/kg measured upto 48 hrs by LC-MS/MS analysis", "format": "ADME, organism-based", "conditions": "in vivo"}, "[3]": {"assay": "Acute toxicity in Kunming mouse assessed as effect on body weight at 500 mg/kg, ip measured after 14 days", "format": "organism-based", "conditions": "in vivo, 336 h, time 14 day"}, "[4]": {"assay": "Acute toxicity in Kunming mouse assessed as effect on heart at 500 mg/kg, ip measured after 14 days by H and E staining based analysis", "format": "organism-based", "conditions": "in vivo, 336 h, time 14 day"}, "[5]": {"assay": "Acute toxicity in Kunming mouse assessed as effect on liver at 500 mg/kg, ip measured 14 days by H and E staining based analysis", "format": "organism-based", "conditions": "in vivo, 336 h, time 14 day"}, "[6]": {"assay": "Acute toxicity in Kunming mouse assessed as effect on spleen at 500 mg/kg, ip measured after 14 days by H and E staining based analysis", "format": "organism-based", "conditions": "in vivo, 336 h, time 14 day"}, "[7]": {"assay": "Acute toxicity in Kunming mouse assessed as effect on lung at 500 mg/kg, ip measured after 14 days by H and E staining based analysis", "format": "organism-based", "conditions": "in vivo, 336 h, time 14 day"}, "[8]": {"assay": "Acute toxicity in Kunming mouse assessed as effect on kidney at 500 mg/kg, ip measured after 14 days by H and E staining based analysis", "format": "organism-based", "conditions": "in vivo, 336 h, time 14 day"}, "[9]": {"assay": "Cytotoxicity against mouse HT-22 cells assessed as cell viability incubated for 24 hrs by CCK-8 method", "format": "toxicity, cell-based"}, "HT-22 [10]": {"test_system": "HT-22", "assay": "Neuroprotective activity against OGD/R induced cell damage in mouse HT-22 cells assessed as cell viability at 10 uM measured after 24 hrs by MTT assay (reference value: 69.01 +/-2.90%)", "format": "functional", "conditions": "read-out: Activity"}, "[11]": {"assay": "Cytotoxicity against mouse BV-2 cells assessed as cell viability incubated for 24 hrs by CCK-8 method", "format": "toxicity, cell-based"}, "HT-22 [12]": {"test_system": "HT-22", "assay": "Antioxidant activity against OGD/R induced damage in mouse HT-22 cells assessed as decrease in proportion of mitochondrial depolarized cells at 1 uM by JC-1 fluorescence based flow cytometry analysis (reference value: 91.7%)", "format": "functional", "design": "scale not given: the % may be the effect or the level left"}, "HT-22 [13]": {"test_system": "HT-22", "assay": "Antioxidant activity against OGD/R induced damage in mouse HT-22 cells assessed as decrease in proportion of mitochondrial depolarized cells at 5 uM by JC-1 fluorescence based flow cytometry analysis (reference value: 91.7%)", "format": "functional", "design": "scale not given: the % may be the effect or the level left"}, "HT-22 [14]": {"test_system": "HT-22", "assay": "Antioxidant activity against OGD/R induced damage in mouse HT-22 cells assessed as decrease in proportion of mitochondrial depolarized cells at 10 uM by JC-1 fluorescence based flow cytometry analysis (reference value: 91.7%)", "format": "functional", "design": "scale not given: the % may be the effect or the level left"}, "HT-22 [15]": {"test_system": "HT-22", "assay": "Anti-apoptotic activity in OGD/R mouse HT-22 cells assessed as viable cells at 1 uM by annexin V-FITC and PI staining based flow cytometry analysis (reference value: 83.09%)", "format": "functional", "conditions": "read-out: Activity"}, "HT-22 [16]": {"test_system": "HT-22", "assay": "Anti-apoptotic activity in OGD/R mouse HT-22 cells assessed as viable cells at 5 uM by annexin V-FITC and PI staining based flow cytometry analysis (reference value: 83.09%)", "format": "functional", "conditions": "read-out: Activity"}, "HT-22 [17]": {"test_system": "HT-22", "assay": "Anti-apoptotic activity in OGD/R mouse HT-22 cells assessed as viable cells at 10 uM by annexin V-FITC and PI staining based flow cytometry analysis (reference value: 83.09%)", "format": "functional", "conditions": "read-out: Activity"}, "HT-22 [18]": {"test_system": "HT-22", "assay": "Anti-apoptotic activity in OGD/R mouse HT-22 cells assessed as early apoptotic cells at 1 uM by annexin V-FITC and PI staining based flow cytometry analysis (reference value: 9.51%)", "format": "functional"}, "HT-22 [19]": {"test_system": "HT-22", "assay": "Anti-apoptotic activity in OGD/R mouse HT-22 cells assessed as early apoptotic cells at 5 uM by annexin V-FITC and PI staining based flow cytometry analysis (reference value: 9.51%)", "format": "functional"}, "HT-22 [20]": {"test_system": "HT-22", "assay": "Anti-apoptotic activity in OGD/R mouse HT-22 cells assessed as early apoptotic cells at 10 uM by annexin V-FITC and PI staining based flow cytometry analysis (reference value: 9.51%)", "format": "functional"}, "HT-22 [21]": {"test_system": "HT-22", "assay": "Anti-apoptotic activity in OGD/R mouse HT-22 cells assessed as late apoptotic cells at 1 uM by annexin V-FITC and PI staining based flow cytometry analysis (reference value: 7.26%)", "format": "functional"}, "HT-22 [22]": {"test_system": "HT-22", "assay": "Anti-apoptotic activity in OGD/R mouse HT-22 cells assessed as late apoptotic cells at 5 uM by annexin V-FITC and PI staining based flow cytometry analysis (reference value: 7.26%)", "format": "functional"}, "HT-22 [23]": {"test_system": "HT-22", "assay": "Anti-apoptotic activity in OGD/R mouse HT-22 cells assessed as late apoptotic cells at 10 uM by annexin V-FITC and PI staining based flow cytometry analysis (reference value: 7.26%)", "format": "functional"}, "HT-22 [24]": {"test_system": "HT-22", "assay": "Anti-apoptotic activity in OGD/R mouse HT-22 cells assessed as necrotic cells at 1 uM by annexin V-FITC and PI staining based flow cytometry analysis (reference value: 0.14%)", "format": "functional"}, "HT-22 [25]": {"test_system": "HT-22", "assay": "Anti-apoptotic activity in OGD/R mouse HT-22 cells assessed as necrotic cells at 5 uM by annexin V-FITC and PI staining based flow cytometry analysis (reference value: 0.14%)", "format": "functional"}, "HT-22 [26]": {"test_system": "HT-22", "assay": "Anti-apoptotic activity in OGD/R mouse HT-22 cells assessed as necrotic cells at 10 uM by annexin V-FITC and PI staining based flow cytometry analysis (reference value: 0.14%)", "format": "functional"}, "[27]": {"assay": "Permeability of the compound by PAMPA method", "format": "ADME", "conditions": "read-out: permeability"}, "[28]": {"assay": "Drug concentration in male Sprague-Dawley rat plasma at 60 mg/kg, ip measured after 0.5 hrs by LC-MS analysis", "format": "ADME, organism-based"}, "[29]": {"assay": "Drug concentration in male Sprague-Dawley rat Cerebrospinal fluid at 60 mg/kg, ip measured after 0.5 hrs by LC-MS analysis", "format": "ADME, organism-based", "conditions": "read-out: Ct"}, "[30]": {"assay": "Drug concentration in male Sprague-Dawley rat plasma at 60 mg/kg, ip measured after 2 hrs by LC-MS analysis", "format": "ADME, organism-based"}, "[31]": {"assay": "Drug concentration in male Sprague-Dawley rat Cerebrospinal fluid at 60 mg/kg, ip measured after 2 hrs by LC-MS analysis", "format": "ADME, organism-based", "conditions": "read-out: Ct"}, "[32]": {"assay": "Drug concentration in male Sprague-Dawley rat plasma at 60 mg/kg, ip measured after 4 hrs by LC-MS analysis", "format": "ADME, organism-based"}, "[33]": {"assay": "Drug concentration in male Sprague-Dawley rat Cerebrospinal fluid at 60 mg/kg, ip measured after 4 hrs by LC-MS analysis", "format": "ADME, organism-based", "conditions": "read-out: Ct"}}, "data": [{"smiles": "Cc1ccc(C(=O)NCCc2c[nH]c3ccc(N(C)C)cc23)c(O)c1.Cl", "values": [{"measurement": "solubility thermodynamic at 72 h", "setting": "[1]", "result": 2300, "unit": "µg/mL"}, {"measurement": "half-life", "setting": "[2]", "result": 3.96, "unit": "h"}, {"measurement": "Activity", "setting": "[3]", "result": "Non-Toxic"}, {"measurement": "Activity", "setting": "[4]", "result": "Non-Toxic"}, {"measurement": "Activity", "setting": "[5]", "result": "Non-Toxic"}, {"measurement": "Activity", "setting": "[6]", "result": "Non-Toxic"}, {"measurement": "Activity", "setting": "[7]", "result": "Non-Toxic"}, {"measurement": "Activity", "setting": "[8]", "result": "Non-Toxic"}]}, {"smiles": "Cc1ccc(C(=O)NCCc2c[nH]c3ccc(N(C)C)cc23)c(O)c1", "values": [{"measurement": "IC50 at 24 h", "setting": "[9]", "result": "> 100", "unit": "µM"}, {"measurement": "viability at 10 µM", "setting": "HT-22 [10]", "result": 92.7, "unit": "%"}, {"measurement": "IC50 at 24 h", "setting": "[11]", "result": "> 100", "unit": "µM"}, {"measurement": "Activity", "setting": "HT-22 [12]", "result": 81.7, "unit": "%"}, {"measurement": "Activity", "setting": "HT-22 [13]", "result": 54, "unit": "%"}, {"measurement": "Activity", "setting": "HT-22 [14]", "result": 49.2, "unit": "%"}, {"measurement": "viability at 1 µM", "setting": "HT-22 [15]", "result": 88, "unit": "%"}, {"measurement": "viability at 5 µM", "setting": "HT-22 [16]", "result": 93.7, "unit": "%"}, {"measurement": "viability at 10 µM", "setting": "HT-22 [17]", "result": 93.6, "unit": "%"}, {"measurement": "Activity", "setting": "HT-22 [18]", "result": 5.95, "unit": "%"}, {"measurement": "Activity", "setting": "HT-22 [19]", "result": 2.34, "unit": "%"}, {"measurement": "Activity", "setting": "HT-22 [20]", "result": 2.01, "unit": "%"}, {"measurement": "Activity", "setting": "HT-22 [21]", "result": 5.84, "unit": "%"}, {"measurement": "Activity", "setting": "HT-22 [22]", "result": 3.67, "unit": "%"}, {"measurement": "Activity", "setting": "HT-22 [23]", "result": 3.37, "unit": "%"}, {"measurement": "Activity", "setting": "HT-22 [24]", "result": 0.15, "unit": "%"}, {"measurement": "Activity", "setting": "HT-22 [25]", "result": 0.33, "unit": "%"}, {"measurement": "Activity", "setting": "HT-22 [26]", "result": 1.06, "unit": "%"}, {"measurement": "Papp", "setting": "[27]", "result": 8.29, "unit": "×10⁻⁶ cm/s"}, {"measurement": "concentration at 0.5 h", "setting": "[28]", "result": 4120, "unit": "ng/mL"}, {"measurement": "concentration at 0.5 h", "setting": "[29]", "result": 53, "unit": "ng/mL"}, {"measurement": "concentration at 2 h", "setting": "[30]", "result": 633, "unit": "ng/mL"}, {"measurement": "concentration at 2 h", "setting": "[31]", "result": 30, "unit": "ng/mL"}, {"measurement": "concentration at 4 h", "setting": "[32]", "result": 186, "unit": "ng/mL"}, {"measurement": "concentration at 4 h", "setting": "[33]", "result": 20, "unit": "ng/mL"}, {"measurement": "solubility thermodynamic at 72 h", "setting": "[1]", "result": 40, "unit": "µg/mL"}, {"measurement": "half-life", "setting": "[2]", "result": 4.56, "unit": "h"}]}]}
